From patent publication US8299048B2, “Hexahydrocyclopentyl[f]indazole sulfonamides and derivatives thereof as selective glucocorticoid receptor modulators” (Merck Sharp & Dohme Corp., priority 2008, dated 2012)

Tests used:
human GR [1] = molecular target: T1, human GR (Homo sapiens, UniProt P04150); test: Trans-Activation Modulation of Glucocorticoid Receptor (GRAMMER), MMTV-LUC reporter, agonist mode; type: cell-based; parameters: endogenous in cells; settings: for Emax: A549, A549 cells, maximum activity, read-out: Transactivation A549 Cells GRAMMER Emax; for EC50: A549 cells, inflection point, read-out: Transactivation A549 Cells GRAMMER IP
T1 sequence (P04150 1-777): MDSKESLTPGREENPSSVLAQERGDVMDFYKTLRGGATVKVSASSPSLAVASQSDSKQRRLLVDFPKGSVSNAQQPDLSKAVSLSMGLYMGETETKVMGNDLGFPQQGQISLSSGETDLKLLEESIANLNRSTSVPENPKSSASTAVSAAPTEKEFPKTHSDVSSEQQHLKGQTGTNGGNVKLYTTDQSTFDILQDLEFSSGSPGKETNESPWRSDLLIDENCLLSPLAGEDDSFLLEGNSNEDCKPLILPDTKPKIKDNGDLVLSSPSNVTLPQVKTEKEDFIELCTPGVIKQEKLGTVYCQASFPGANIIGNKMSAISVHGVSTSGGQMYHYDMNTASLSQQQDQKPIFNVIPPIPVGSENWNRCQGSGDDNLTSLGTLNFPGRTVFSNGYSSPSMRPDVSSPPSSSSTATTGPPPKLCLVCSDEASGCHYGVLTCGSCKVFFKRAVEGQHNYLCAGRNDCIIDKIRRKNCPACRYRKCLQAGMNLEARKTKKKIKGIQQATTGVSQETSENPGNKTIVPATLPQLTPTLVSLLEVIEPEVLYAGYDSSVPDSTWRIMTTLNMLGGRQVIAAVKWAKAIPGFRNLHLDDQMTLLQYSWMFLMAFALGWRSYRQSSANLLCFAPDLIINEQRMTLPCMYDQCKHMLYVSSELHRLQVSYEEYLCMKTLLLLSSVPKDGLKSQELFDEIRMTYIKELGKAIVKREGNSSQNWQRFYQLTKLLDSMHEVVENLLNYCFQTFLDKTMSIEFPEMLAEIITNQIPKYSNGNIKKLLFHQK
Outline: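 Readout is luciferase from a modified MMTV LTR promoter after 24 h compound exposure alongside 10 nM dexamethasone (100% activity reference), DMSO ≤1%.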

human GR [2] = molecular target: T1, human GR; test: Transrepression Assay (GITAR), TNFα-β-lactamase reporter in U937 cells; type: cell-based; parameters: U937 cells contain an endogenous glucocorticoid receptor (GR); endogenous in cells; host or cells: U937 cells stably transfected with the TNF-alpha promoter/beta-lactamase reporter; settings: for GITAR > GRAMM % SEP: GITAR Emax minus GRAMMER Emax; for EC50: U937 cells, inflection point, read-out: Transrepression U937 Cells GITAR IP
Outline: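 Stable TNF-α-promoter/β-lactamase U937 line, endogenous GR; 50,000 cells/well. Cmpd 30–45 min 37 °C → PMA 5 ng/ml + LPS 100 ng/ml final, 37 °C ~18 hr → CCF2-AM 70–90 min RT. 100 nM dex = 100%.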

[3] = U-937, U937 cells, maximum activity, read-out: Transrepression U937 Cells GITAR Emax
[4] = U-937, activity repressed by 100 nM dexamethasone alone set as 100%, read-out: maximal activity in the transrepression (GITAR) assay

| Structure (SMILES) | Emax (human GR [1]) [%] | EC50 (human GR [1]) [nM] | GITAR > GRAMM % SEP (human GR [2]) [%] | EC50 (human GR [2]) [nM] | Emax (human GR [2]; [3]) [%] | Emax (human GR [2]; [4]) [%] |
| --- | --- | --- | --- | --- | --- | --- |
| C[C@]12Cc3cnn(-c4ccccc4)c3C=C1CC[C@@H]2CN(CCc1ccccn1)S(=O)(=O)CC(F)(F)F [Example 138, 2,2,2-trifluoro-N-{[(4αR,5S)-4α-methyl-1-phenyl-1,4,4α,5,6,7-hexahydrocyclopenta[f]indazol-5-yl]methyl}-N-(2-pyridin-2-ylethyl)ethanesulfonamide] | 78.1 | 203 | 5.6 | 433 | 83.7 | > 5 |
| COc1ccccc1CCN(C[C@H]1CCC2=Cc3c(cnn3-c3ccccc3)C[C@@]21C)S(=O)(=O)CC(F)(F)F [Example 139, 2,2,2-trifluoro-N-[2-(2-methoxyphenyl)ethyl]-N-{[(4αR,5S)-4α-methyl-1-phenyl-1,4,4α,5,6,7-hexahydrocyclopenta[f]indazol-5-yl]methyl}ethanesulfonamide] | 70.7 | 262 | 1.7 | 798 | 72.4 | > 5 |
| C[C@]12Cc3cnn(-c4ccccc4)c3C=C1CC[C@@H]2CN(CCc1ccccn1)S(=O)(=O)Cc1cccnc1 [Example 140, N-{[(4αR,5S)-4α-methyl-1-phenyl-1,4,4α,5,6,7-hexahydrocyclopenta[f]indazol-5-yl]methyl}-1-pyridin-3-yl-N-(2-pyridin-2-ylethyl)methanesulfonamide] | 21.3 | 704 | – | 1570 | 37 | > 5 |
| C[C@]12Cc3cnn(-c4ccccc4)c3C=C1CC[C@@H]2CN(CCc1ccccc1O)S(=O)(=O)Cc1cccnc1 [Example 141, N-[2-(2-hydroxyphenyl)ethyl]-N-{[(4αR,5S)-4α-methyl-1-phenyl-1,4,4α,5,6,7-hexahydrocyclopenta[f]indazol-5-yl]methyl}-1-pyridin-3-ylmethanesulfonamide] | 22.6 | 441 | 39.7 | 400 | 62.2 | > 5 |
| C[C@]12Cc3cnn(-c4ccc(F)cc4)c3C=C1CC[C@@H]2CN(CCC(N)C(F)(F)F)S(=O)(=O)CC(F)(F)F (stereo partly drawn) [Example 147, N-(3-amino-4,4,4-trifluorobutyl)-2,2,2-trifluoro-N-{[(4aR,5S)-1-(4-fluorophenyl)-4α-methyl-1,4,4α,5,6,7-hexahydrocyclopenta[f]indazol-5-yl]methyl}ethanesulfonamide] | 78.1 | 475 | 0.3 | 708 | 78.4 | > 5 |
| CCCS(=O)(=O)N(CC(O)C(F)(F)F)C[C@H]1CCC2=Cc3c(cnn3-c3ccc(F)cc3)C[C@@]21C (stereo partly drawn) [Example 148, N-{[(4αR,5S)-1-(4-fluorophenyl)-4α-methyl-1,4,4α,5,6,7-hexahydrocyclopenta[f]indazol-5-yl]methyl}-N-(3,3,3-trifluoro-2-hydroxypropyl)propane-1-sulfonamide] | 62.6 | 403 | 14.9 | 858 | 77.6 | > 5 |
| C[C@]12Cc3cnn(-c4ccc(F)cc4)c3C=C1CC[C@@H]2CN(CC(O)C(F)(F)F)S(=O)(=O)Cc1cccnc1 (stereo partly drawn) [Example 149, N-{[(4αR,5S)-1-(4-fluorophenyl)-4α-methyl-1,4,4α,5,6,7-hexahydrocyclopenta[f]indazol-5-yl]methyl}-1-pyridin-3-yl-N-(3,3,3-trifluoro-2-hydroxypropyl)methanesulfonamide] | 32.4 | 351 | 44.7 | 250 | 77.1 | > 5 |
| Cn1cc(S(=O)(=O)N(CCc2ccccn2)C[C@H]2CCC3=Cc4c(cnn4-c4ccc(F)cc4)C[C@@]32C)c(C(F)(F)F)n1 [Example 150, N-{[(4αR,5S)-1-(4-fluorophenyl)-4α-methyl-1,4,4α,5,6,7-hexahydrocyclopenta[f]indazol-5-yl]methyl}-1-methyl-N-(2-pyridin-2-ylethyl)-3-(trifluoromethyl)-1H-pyrazole-4-sulfonamide] | 45.6 | 346 | 33.7 | 376 | 79.3 | > 5 |
| CCCS(=O)(=O)N(CCc1ccccn1)C[C@H]1CCC2=Cc3c(cnn3-c3ccc(F)cc3)C[C@@]21C [Example 151, N-{[(4αR,5S)-1-(4-fluorophenyl)-4α-methyl-1,4,4α,5,6,7-hexahydrocyclopenta[f]indazol-5-yl]methyl}-N-(2-pyridin-2-ylethyl)propane-1-sulfonamide] | 76 | 421 | 7.2 | 551 | 83.3 | > 5 |
| C[C@]12Cc3cnn(-c4ccc(F)cc4)c3C=C1CC[C@@H]2CN(CCc1ccccn1)S(=O)(=O)CCN1C(=O)c2ccccc2C1=O [Example 152, 2-(1,3-dioxo-1,3-dihydro-2H-isoindol-2-yl)-N-{[(4αR,5S)-1-(4-fluorophenyl)-4α-methyl-1,4,4α,5,6,7-hexahydrocyclopenta[f]indazol-5-yl]methyl}-N-(2-pyridin-2-ylethyl)ethanesulfonamide] | 2 | 63.9 | 21.0 | 1030 | 23 | > 5 |

Now from value to molecule:

| Emax (human GR [1]) [%] | EC50 (human GR [1]) [nM] | GITAR > GRAMM % SEP (human GR [2]) [%] | EC50 (human GR [2]) [nM] | Emax (human GR [2]; [3]) [%] | Emax (human GR [2]; [4]) [%] | Structure (SMILES) |
| --- | --- | --- | --- | --- | --- | --- |
| 78.1 | 123 | 14.4 | 140 | 92.5 | > 5 | C[C@]12Cc3cnn(-c4ccc(F)cc4)c3C=C1CC[C@@H]2CN(CC(O)c1ccccn1)S(=O)(=O)CC(F)(F)F (stereo partly drawn) [Example 142, 2,2,2-trifluoro-N-{[(4αR,5S)-1-(4-fluorophenyl)-4α-methyl-1,4,4α,5,6,7-hexahydrocyclopenta[f]indazol-5-yl]methyl}-N-(2-hydroxy-2-pyridin-2-ylethyl)ethanesulfonamide] |
| 83.5 | 252 | 7.7 | 225 | 91.2 | > 5 | C[C@]12Cc3cnn(-c4ccc(F)cc4)c3C=C1CC[C@@H]2CN(CC(O)c1cccnc1)S(=O)(=O)CC(F)(F)F (stereo partly drawn) [Example 143, 2,2,2-trifluoro-N-{[(4αR,5S)-1-(4-fluorophenyl)-4α-methyl-1,4,4α,5,6,7-hexahydrocyclopenta[f]indazol-5-yl]methyl}-N-(2-hydroxy-2-pyridin-3-ylethyl)ethanesulfonamide] |
| 73.6 | 397 | 18.1 | 334 | 91.6 | > 5 | C[C@]12Cc3cnn(-c4ccc(F)cc4)c3C=C1CC[C@@H]2CN(CC(O)c1ccncc1)S(=O)(=O)CC(F)(F)F (stereo partly drawn) [Example 144, 2,2,2-trifluoro-N-{[(4αR,5S)-1-(4-fluorophenyl)-4α-methyl-1,4,4α,5,6,7-hexahydrocyclopenta[f]indazol-5-yl]methyl}-N-(2-hydroxy-2-pyridin-4-ylethyl)ethanesulfonamide] |
| 60.2 | 204 | 33.3 | 196 | 93.5 | > 5 | C[C@]12Cc3cnn(-c4ccc(F)cc4)c3C=C1CC[C@@H]2CN(CC(OS(=O)(=O)CC(F)(F)F)c1ccccn1)S(=O)(=O)CC(F)(F)F (stereo partly drawn) [Example 145, 2-{{[(4αR,5S)-1-(4-fluorophenyl)-4α-methyl-1,4,4α,5,6,7-hexahydrocyclopenta[f]indazol-5-yl]methyl}[(2,2,2-trifluoroethyl)sulfonyl]amino}-1-pyridin-2-ylethyl 2,2,2-trifluoroethanesulfonate] |
| 91.5 | 263 | 1.8 | 308 | 93.3 | > 5 | CC(CN(C[C@H]1CCC2=Cc3c(cnn3-c3ccc(F)cc3)C[C@@]21C)S(=O)(=O)CC(F)(F)F)c1cccnc1 (stereo partly drawn) [Example 146, 2,2,2-trifluoro-N-{[(4αR,5S)-1-(4-fluorophenyl)-4α-methyl-1,4,4α,5,6,7-hexahydrocyclopenta[f]indazol-5-yl]methyl}-N-(2-pyridin-3-ylpropyl)ethanesulfonamide] |
